Laboratory results as given in a compilation of properties of binary mixtures (doi:10.1039/c7qm00510e).

Assay: xn = mol fraction of the nth substance listed
Conditions: 101 kPa

CCCCCCCCCCOS(=O)(=O)[O-].CC[n+]1ccn(C)c1 + O
electrical conductivity [S/m]
Conditions | 303.15 K | 313.15 K | 323.15 K | 333.15 K | 343.15 K | 353.15 K | 363.15 K | 372.95 K
x1 = 0.075 | 2.53 | 3.16 | 3.83 | 4.55 | 5.29 | 6.06 | – | –
x1 = 0.317 | – | – | – | – | 1.34 | 1.63 | 1.96 | 2.23
